In patent US20240325424A1, “Pharmaceutical Compositions And Methods For Treating Neoplasia” (priority 2021, published 2024):
In brackets after ≈: the same amount, converted by molar mass.

Assays:
[1] = system: pandemic flu H1/415, A/Hong Kong/415742/2009, A(H1N1)pdm09; settings: To et al. (2016); cited from earlier work
a virus = settings: virus of Chan et al., 2013, p. 612; cited from earlier work
[2] = system: seasonal influenza A(H3N2) virus; settings: To et al. (2016); cited from earlier work
Influenza A H1N1 = experiment: antiviral test Influenza A H1N1; format: cell-based; settings: Influenza A virus
Norovirus = Norovirus test; format: cell-based
RSV = experiment: antiviral test RSV; format: cell-based; settings: human respiratory syncytial virus
[3] = system: avian-origin influenza A (H7N9); settings: cited from earlier work

In the case of `COc1c(C)c2c(c(O)c1C/C=C(\C)CCC(=O)O)C(=O)OC2` [mycophenolic acid, 6-(4-hydroxy-6-methoxy-7-methyl-3-oxo-1,3-dihydroisobenzofuran-5-yl)-4-methyl-hex-4-enoic acid], the effectiveness against virus [1] is given as “effective”, the EC50 (a virus) is given as 0.17 mg/L (≈ 0.531 µM) and the effectiveness against virus [2] is given as “effective”. For the same compound, the EC50 (Influenza A H1N1) was under 0.1 mg/L, the EC50 (Norovirus) was 0.151 mg/L (≈ 0.471 µM) and the EC50 (RSV) was under 0.1 mg/L. The effectiveness against virus [3] was “effective”.
